Nine compounds from patent US8501803B2, “Garcinia derivative, its preparing method and medicinal use” (China Pharmaceutical University, priority 2010, dated 2013) can be followed below.

Data set [1] has as its system MCF-7 cells (human breast cancer cells). Put plainly: MTT antiproliferative test on MCF-7 cells. As to conditions: MCF7, 96 h, 4 days culture, MCF-7 human breast cancer cells, read-out: MCF-7 cell IC50. The data set is classed as cell-based. As for the experimental part: (§1) Test method: The cells of log phase are cultivated in the culture plate with 96 pores, and each pore contains 100 μL of solution (including 1000-1200 tumor cells). The next day, different concentrations of the present compound are added to the treatment groups, each compound contains 4 to 5 dosage groups, and each dosage group contains at least 3 parallel pores. The solvent with an equivalent volume of the said compound is added to the control groups. The said culture plate is then placed in a 5% CO2 incubator, cultured at 37° C., and the culture solution is discharged 4 days later. Next, 200 μL of the 0.2% MTT solution (RPMI1640 preparation) is added to each pore and incubated at 37° C. for 4 hours; the obtained supernatant is discharged; and 150 μL of DMSO is added to each pore so as to dissolve formazane particles. After slightly shaking the mixture, the optical density (OD) is measured by the ELIASA in the conditions of a resulting reference wavelength 450 nm and a detection wavelength 570 nm. The tumor cells treated with solvent are used as control groups, and the inhibition rate of the drugs against the tumor cells and IC50 are calculated according to the following equation. […] The MCF-7 cells are human breast cancer cells and the BGC-823 cells are human gastric carcinoma cells.

Data set [2] relates to BGC-823 cells (human gastric carcinoma cells). Put plainly: MTT antiproliferative test on BGC-823 cells. As to conditions: 96 h, 4 days culture, BGC-823 human gastric carcinoma cells, read-out: BGC-823 cell IC50. Format: cell-based. As for the experimental part: as §1

Regarding `CC(C)=CCC12OC(C)(C)C3CC(C=C4C(=O)c5cc(O)ccc5OC431)C2=O` (stereo not drawn), the melting point was in the range of 158 to 159 °C.
The same measure, in the same setting: in the case of `CC(C)=CCC12OC(C)(C)C3CC(C=C4C(=O)c5cccc(O)c5OC431)C2=O` (stereo not drawn) it was 203 to 205 °C.
Regarding `CC(C)=CCC12OC(C)(C)C3CC(C=C4C(=O)c5c(O)cccc5OC431)C2=O` (stereo not drawn) [CPUY I-1, 3,3a,4,5-tetrahydro-3,3-dimethyl-1-(3-methyl-2-butenyl)-8-hydroxyl-1,5-dimethylene-1H,7H-furan[3,4-d]xanthene-7,13-diketone], the IC50 in data set [1] is 9.16 µM; in data set [2] it was 3.59 µM.
Take `CC(C)=CCC12OC(C)(C)C3CC(C=C4C(=O)c5ccc(O)cc5OC431)C2=O` (stereo not drawn) [CPUY I-2, 3,3a,4,5-tetrahydro-3,3-dimethyl-1-(3-methyl-2-butenyl)-10-hydroxyl-1,5-dimethylene-1H,7H-furan[3,4-d]xanthene-7,13-diketone]: the melting point fell in the range of 197 to 199 °C. The IC50 in data set [1] turned out to be 12.4 µM. For the same compound, in data set [2], the IC50 turned out to be 17.6 µM.
For `CC(C)=CCc1c(O)ccc2c1OC13C(=CC4CC1C(C)(C)OC3(CC=C(C)C)C4=O)C2=O` (stereo not drawn) [CPUY I-5, 3,3a,4,5-tetrahydro-3,3-dimethyl-1,11-bis(3-methyl-2-butenyl)-10-hydroxyl-1,5-dimethylene-1H,7H-furan[3,4-d]xanthene-7,13-diketone] the same measures were 158 to 160 °C, 5.79 µM and 15 µM.
For `CC(C)=CCc1c(O)ccc2c1C(=O)C1=CC3CC4C(C)(C)OC(CC=C(C)C)(C3=O)C14O2` (stereo not drawn) [CPUY I-6, 3,3a,4,5-tetrahydro-3,3-dimethyl-1,8-bis(3-methyl-2-butenyl)-9-hydroxyl-1,5-dimethylene-1H,7H-furan[3,4-d]xanthene-7,13-diketone] the same measures were 138 to 139 °C, 11.9 µM and 21.7 µM.
For `CC(C)=CCc1cc2c(cc1O)C(=O)C1=CC3C4CC1(O2)C(=O)C3(CC=C(C)C)OC4(C)C` (stereo not drawn) [CPUY I-7, 1,3a,4,11a-tetrahydro-3,3-dimethyl-1,7-bis(3-methyl-2-butenyl)-8-hydroxyl-3H-1,4-a-dimethylene-10H-furan[3,4-b]xanthene-10,12-diketone], in that order: 148 to 150 °C, 10.9 µM and 18.2 µM.
The compound `CC(C)=CCc1ccc2c(c1O)OC13C(=CC4CC1C(C)(C)OC3(CC=C(C)C)C4=O)C2=O` (stereo not drawn) [CPUY I-8, 3,3a,4,5-tetrahydro-3,3-dimethyl-1,10-bis(3-methyl-2-butenyl)-11-hydroxyl-1,5-dimeth ylene-1H,7H-furan[3,4-d]xanthene-7,13-diketone] showed a melting point of 157 to 158 °C. Besides, the IC50 in data set [1] is 9.06 µM. For the same compound, in data set [2], the IC50 was 11.3 µM.
`CC(C)=CCC[C@]1(C)C=Cc2c(O)c3c(c(CC=C(C)C)c2O1)O[C@]12C(=C[C@@H]4C[C@H]1C(C)(C)O[C@@]2(C/C=C(/C)C(=O)O)C4=O)C3=O` [Gambogic acid, gambogic acid, reference compound]: the IC50 in data set [1] amounted to 2.19 µM; in data set [2], 2.35 µM.
